Reference: PubChem BioAssay (NCI)
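All cell lines were grown in 96-well plates and treated with compound for 48 hours. GI50: concentration for 50% inhibition of growth. TGI is the concentration that stops growth completely.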

Assays:
Assay in all cases: NCI tumour cell line growth inhibition, 48 h
[1] = test system: K-562 leukemia
[2] = test system: MOLT-4 leukemia
[3] = test system: SW-620 colon
[4] = test system: COLO 205 colon
[5] = test system: 786-0 renal
[6] = test system: SK-MEL-5 melanoma
[7] = test system: A549 NSCLC
[8] = test system: RXF 393 renal
[9] = test system: HCT-15 colon
[10] = test system: KM12 colon

SMILES	GI50 [1] [µM]	TGI [1] [µM]	GI50 [2] [µM]	TGI [2] [µM]	GI50 [3] [µM]	TGI [3] [µM]	GI50 [4] [µM]	TGI [4] [µM]	GI50 [5] [µM]	TGI [5] [µM]	GI50 [6] [µM]	TGI [6] [µM]	GI50 [7] [µM]	TGI [7] [µM]	GI50 [8] [µM]	TGI [8] [µM]	GI50 [9] [µM]	TGI [9] [µM]	GI50 [10] [µM]	TGI [10] [µM]
CC1=CC[C@@H]2C(C)(C)[C@@H](O)CC[C@@]2(C)[C@@H]1COc1ccc2ccc(=O)oc2c1	3.28	27.5	3.14	15.7	9.94	27.2	5.35	23.6	13	28	3.48	12.7	5.68	22.8	13.2	35.3	3.6	15.8	4.18	15.7
O=C(O)c1nnsc1COCc1ccccc1	–	> 100	–	> 100	–	> 100	–	> 100	–	> 100	–	> 100	–	> 100	–	> 100	–	> 100	–	> 100
Cc1ccc(S(=O)(=O)NCCN2c3nc4ccccc4cc3Sc3cc4ccccc4nc32)cc1	> 100	> 100	> 100	> 100	> 100	> 100	> 100	> 100	1.67	> 45.9	5.59	> 100	> 100	> 100	22.1	66.3	> 100	> 100	> 100	> 100
CC(SC1=CC(=O)c2c(O)ccc(O)c2C1=O)C(=O)O (centres undefined)	–	40.7	–	60.7	–	> 55.6	–	> 60.3	–	56.8	–	> 100	–	> 100	–	> 64.4	–	> 55.3	–	> 100
Cc1cc(O)cc(C)c1/C=C/c1cncc(C(=O)N(C)C)c1	> 25	> 25	> 25	> 25	> 25	> 25	> 25	> 25	> 25	> 25	> 25	> 25	> 25	> 25	> 25	> 25	> 25	> 25	> 25	> 25
COc1cccc2c1C1=CC(=O)CCC1C(C)(C)O2 (centres undefined)	–	> 100	–	> 100	–	27.3	–	> 100	–	> 100	–	> 100	–	> 100	–	> 100	–	> 100	–	> 100
CC(C)(C)C([O-])=C1C(=O)c2ccccc2C1=O.CC(C)(C)C([O-])=C1C(=O)c2ccccc2C1=O.CC[O-].CC[O-].[Ti+4]	44.9	> 100	22.4	61.9	25.5	> 100	22.7	44.7	47.2	> 100	42.2	95.6	36.2	> 100	10.8	90.3	29.5	> 100	37.6	> 100
CC1(C)C(=O)/C(=C\c2ccco2)C[C@]2(C)[C@H]3CC=C4[C@@H]5C[C@](C)(C(=O)O)CC[C@]5(C)CC[C@@]4(C)[C@]3(C)CC[C@@H]12	5.17	93	4.37	26.7	10.2	25.9	9.31	25.5	9.51	25	10.5	22.5	4.21	21.7	10.7	22.7	5.26	18.8	5.88	19.5
Nc1ncnc2c1ncn2C1OC(C(=O)O)C(O)C1O (centres undefined)	–	> 100	–	> 100	–	> 100	–	> 100	–	> 100	–	> 100	–	> 100	–	> 100	–	> 100	–	> 100
CCOC(=O)/C=C(/CN1C(=O)c2ccccc2C1=O)c1ccccc1	–	> 100	–	> 100	–	> 100	–	> 100	–	> 100	–	> 100	–	> 100	–	> 100	–	> 100	–	> 100
OCC1OC(N2C=C(c3nc4ccccc4s3)C3C=CC=CC32)C(O)C1O (centres undefined)	16.3	> 50	> 50	> 50	9.82	> 50	14.1	49.6	8.68	19.5	6.1	14.5	12.7	41.2	10.6	25.9	7.92	22	8.95	23.4
Cc1ccc(-c2cc3nc(-c4ccccc4)nc(C(Cl)Cl)n3n2)cc1	1.76	> 50	> 50	> 50	0.851	2.29	1.06	2.34	1.06	2.37	> 50	> 50	0.927	2.63	0.845	1.88	0.958	3.13	0.701	1.96
CCCCc1cc(O)ccc1O	10.3	> 100	5.07	> 100	33.8	> 100	74.6	> 100	12.2	> 100	58.3	> 100	89.2	> 100	16.7	> 100	28.2	> 100	16.4	> 100
N#C/C(=C(\O)C(=O)O)c1ccc(-c2cccc3ccccc23)cc1	–	> 100	–	12.2	–	> 100	–	> 100	–	> 100	–	> 100	–	> 100	–	> 100	–	> 100	–	> 100
COc1ccc([N+](=O)[O-])c2c(NCC(O)CO)ccnc12 (centres undefined)	–	> 100	–	> 100	–	> 100	–	53.6	–	> 100	–	60.8	–	> 100	–	> 100	–	35.1	–	> 100
CC1(C)OC2C(=O)OC(COCc3ccccc3)C2O1 (centres undefined)	–	> 100	–	> 100	–	> 100	–	> 100	–	> 100	–	> 100	–	> 100	–	> 100	–	> 100	–	> 100
O=S(=O)(O)c1ccc2cc(N=Nc3cc(S(=O)(=O)O)c4cccnc4c3O)ccc2c1	–	> 100	–	> 100	–	> 100	–	> 100	–	> 100	–	> 100	–	> 100	–	> 100	–	> 100	–	> 100
COC(=O)c1ccc2c(c1)c1c(C)c3cnccc3c(C)c1n2C	0.0442	1.8	0.0468	3.13	0.0375	1.31	0.0387	0.277	0.0666	1.34	0.0866	0.253	0.0615	0.658	0.0512	0.286	0.0394	1.38	0.0495	1.89
CCN(CC)CC(C)Nc1ccc(C)c2sc3ccccc3c(=O)c12 (centres undefined)	0.216	3.15	1.68	5.93	3.33	13.7	1.68	3.77	3.14	11.2	1.48	2.85	3.02	16.8	–	1.97	3.39	14.7	4.71	16.9
O=Nc1c2cccnc2n2nnc3ccc(Cl)cc3c12	0.239	6.66	0.0476	1.49	0.331	1.33	1.32	5.07	1.25	6.11	5.73	14.5	3.98	23.8	0.65	1.64	0.94	5.75	1.54	4.75
C=CCN(N=O)C(=O)N(CCC)CCCC(NC(C)=O)C(=O)NCc1ccccc1 (centres undefined)	–	> 100	–	> 100	–	> 100	–	> 100	–	> 100	–	> 100	–	> 100	–	> 100	–	> 100	–	> 100
OCCCNCc1ccccn1	–	> 100	–	> 100	–	> 100	–	> 100	–	> 100	–	> 100	–	> 100	–	> 100	–	> 100	–	> 100
CCCN(CCCCC(NC(C)=O)C(=O)NCc1ccccc1)C(=O)NC (centres undefined)	–	> 100	–	> 100	–	> 100	–	> 100	–	> 100	–	> 100	–	> 100	–	> 100	–	> 100	–	> 100
CCOC(=O)/C=C/c1ccc(C(=O)OCC)[nH]1	0.649	> 100	4.42	> 100	1.29	> 100	2.82	8.38	7.85	> 100	2.34	8.01	5.69	> 100	9.59	46.9	3.11	> 100	0.601	92.6
